How the values were obtained:
Experiment in all cases: relative viability (nuclei count vs DMSO), 5 days (fraction); higher = more cells survive
[1] = compound: C1=CC=C2C(=C1)N=C(S2)C(C#N)C3=NC(=NC=C3)NCCC4=CN=CC=C4 + COc1cc2c(Oc3ccc(NC(=O)C4(C(=O)Nc5ccc(F)cc5)CC4)cc3F)ccnc2cc1OCCCN1CCOCC1 [Foretinib] (partner 0.25 µM)
Procedure, shortened: (§1)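 Five library-drug doses in √10 steps were combined with a fixed anchor-drug dose, or a single drug was given alone, by pin tool to lung cancer cell lines in 1536-well plates the day after seeding. Nuclei were stained and counted after 5 days. Relative viability is the nuclei count in treated wells over that in vehicle wells, taken as the median of duplicate plates.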

[2] = compound: C1=CC=C2C(=C1)N=C(S2)C(C#N)C3=NC(=NC=C3)NCCC4=CN=CC=C4 + Cc1cc(Nc2cc(N3CCN(C)CC3)nc(Sc3ccc(NC(=O)C4CC4)cc3)n2)n[nH]1 [Tozasertib] (partner 0.1 µM)
Procedure, shortened: as §1

[3] = compound: C1=CC=C2C(=C1)N=C(S2)C(C#N)C3=NC(=NC=C3)NCCC4=CN=CC=C4 + O=C(c1cc(Cc2n[nH]c(=O)c3ccccc23)ccc1F)N1CCN(C(=O)C2CC2)CC1 [Olaparib] (partner 8 µM)
Procedure, shortened: as §1

NVP-TAE684 + Pictilisib = compound: COc1cc(N2CCC(N3CCN(C)CC3)CC2)ccc1Nc1ncc(Cl)c(Nc2ccccc2S(=O)(=O)C(C)C)n1 [NVP-TAE684] + CS(=O)(=O)N1CCN(Cc2cc3nc(-c4cccc5[nH]ncc45)nc(N4CCOCC4)c3s2)CC1 [Pictilisib] (partner 1 µM)
Procedure, shortened: as §1

UMC-11
relative viability ([1]; first compound 0.005 µM): 0.908 | relative viability ([1]; first compound 0.01581 µM): 0.993 | relative viability ([1]; first compound 0.05 µM): 0.999 | relative viability ([1]; first compound 0.1581 µM): 1.01 | relative viability ([1]; first compound 0.5 µM): 1.05 | relative viability ([2]; first compound 0.005 µM): 0.212 | relative viability ([2]; first compound 0.01581 µM): 0.214 | relative viability ([2]; first compound 0.05 µM): 0.177 | relative viability ([2]; first compound 0.1581 µM): 0.249 | relative viability ([2]; first compound 0.5 µM): 0.206 | relative viability ([3]; first compound 0.01581 µM): 0.344 | relative viability ([3]; first compound 0.05 µM): 0.349 | relative viability ([3]; first compound 0.1581 µM): 0.366 | relative viability ([3]; first compound 0.5 µM): 0.382 | relative viability (NVP-TAE684 + Pictilisib; first compound 0.2 µM): 0.979 | relative viability (NVP-TAE684 + Pictilisib; first compound 2 µM): 0.586
